{"source": "paper doi:10.1101/2025.05.09.653172", "about": "“Alternative Splicing in TRPA1 Drives Sensory Adaptation to Electrophiles in Drosophilids” (bioRxiv, 2025)", "assay_in_all_cases": "two-electrode voltage clamp, Xenopus oocytes, heat-normalized AITC-evoked current", "key": {"[1]": {"tested_on": "T1, SpTRPA1-CL", "T1 construct": "gene TrpA1; full CDS of splice isoform CL (cDNA from adult labella) in pOX(+), cRNA-injected Xenopus laevis oocytes", "type": "cell-based, Scaptomyza pallida", "settings": "agonist (electrophile); ND96 pH 7.4, -60 mV; after prior heat stimulus (>40 °C); read-out: TRPA1-CL / SpTRPA1-CL", "source_text": "two-electrode voltage clamp, Xenopus oocytes, heat-normalized AITC-evoked current on SpTRPA1-CL"}, "[2]": {"biological_target": "T2, DmTRPA1-C (Drosophila melanogaster, UniProt G8IQ59)", "T2 construct": "gene TrpA1; full CDS of splice isoform C (cDNA from third-instar larva whole body) in pOX(+), cRNA-injected Xenopus laevis oocytes", "T2 sequence (G8IQ59 1-1232)": "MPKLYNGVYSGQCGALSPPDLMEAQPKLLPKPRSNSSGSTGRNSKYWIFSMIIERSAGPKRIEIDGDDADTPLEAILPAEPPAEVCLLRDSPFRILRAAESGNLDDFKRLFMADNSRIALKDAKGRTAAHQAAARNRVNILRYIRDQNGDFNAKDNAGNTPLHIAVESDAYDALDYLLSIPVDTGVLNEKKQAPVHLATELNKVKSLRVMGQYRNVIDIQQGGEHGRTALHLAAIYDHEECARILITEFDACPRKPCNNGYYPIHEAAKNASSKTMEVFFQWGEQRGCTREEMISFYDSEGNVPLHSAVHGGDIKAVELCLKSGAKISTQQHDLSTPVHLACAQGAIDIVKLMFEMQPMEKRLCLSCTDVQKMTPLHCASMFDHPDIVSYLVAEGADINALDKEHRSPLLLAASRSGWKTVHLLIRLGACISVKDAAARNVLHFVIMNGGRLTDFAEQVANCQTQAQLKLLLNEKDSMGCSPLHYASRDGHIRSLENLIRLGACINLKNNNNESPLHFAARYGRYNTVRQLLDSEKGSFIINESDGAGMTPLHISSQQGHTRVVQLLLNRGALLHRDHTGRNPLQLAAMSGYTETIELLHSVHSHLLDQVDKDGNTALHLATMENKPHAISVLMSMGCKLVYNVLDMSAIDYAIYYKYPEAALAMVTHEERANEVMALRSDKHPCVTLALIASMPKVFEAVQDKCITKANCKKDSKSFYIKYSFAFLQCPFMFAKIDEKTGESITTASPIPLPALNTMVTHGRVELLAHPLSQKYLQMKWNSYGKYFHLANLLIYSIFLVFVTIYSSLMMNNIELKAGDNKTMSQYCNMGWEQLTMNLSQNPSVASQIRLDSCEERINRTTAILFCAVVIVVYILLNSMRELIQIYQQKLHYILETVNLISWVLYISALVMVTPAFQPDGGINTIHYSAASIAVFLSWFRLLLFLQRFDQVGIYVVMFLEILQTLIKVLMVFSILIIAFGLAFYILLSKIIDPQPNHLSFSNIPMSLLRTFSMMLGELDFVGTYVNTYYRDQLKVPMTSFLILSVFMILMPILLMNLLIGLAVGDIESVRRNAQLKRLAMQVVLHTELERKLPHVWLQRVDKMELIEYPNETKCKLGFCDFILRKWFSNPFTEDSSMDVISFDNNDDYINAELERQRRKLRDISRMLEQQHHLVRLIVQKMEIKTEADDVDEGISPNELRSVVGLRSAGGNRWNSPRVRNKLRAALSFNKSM", "type": "cell-based", "settings": "read-out: TRPA1-CL / DmTRPA1-C", "source_text": "two-electrode voltage clamp, Xenopus oocytes, heat-normalized AITC-evoked current on DmTRPA1-C"}, "[3]": {"tested_on": "T3, SpTRPA1-DL", "T3 construct": "gene TrpA1; full CDS of splice isoform DL (cDNA from adult tarsi) in pOX(+), cRNA-injected Xenopus laevis oocytes", "type": "cell-based, Scaptomyza pallida", "settings": "agonist (electrophile); ND96 pH 7.4, -60 mV; after prior heat stimulus (>40 °C); read-out: TRPA1-DL / SpTRPA1-DL", "source_text": "two-electrode voltage clamp, Xenopus oocytes, heat-normalized AITC-evoked current on SpTRPA1-DL"}, "[4]": {"tested_on": "T4, SfTRPA1-CL", "T4 construct": "gene TrpA1; full CDS of splice isoform CL (artificial synthesis, Genscript) in pOX(+), cRNA-injected Xenopus laevis oocytes", "type": "cell-based, Scaptomyza flava", "settings": "agonist (electrophile); ND96 pH 7.4, -60 mV; after prior heat stimulus (>40 °C); read-out: TRPA1-CL / SfTRPA1-CL", "source_text": "two-electrode voltage clamp, Xenopus oocytes, heat-normalized AITC-evoked current on SfTRPA1-CL"}, "[5]": {"biological_target": "T5, DmTRPA1-D (Drosophila melanogaster, UniProt H0USS9)", "T5 construct": "gene TrpA1; full CDS of splice isoform D (cDNA gift from Marco Gallio lab) in pOX(+), cRNA-injected Xenopus laevis oocytes", "T5 sequence (H0USS9 1-1231)": "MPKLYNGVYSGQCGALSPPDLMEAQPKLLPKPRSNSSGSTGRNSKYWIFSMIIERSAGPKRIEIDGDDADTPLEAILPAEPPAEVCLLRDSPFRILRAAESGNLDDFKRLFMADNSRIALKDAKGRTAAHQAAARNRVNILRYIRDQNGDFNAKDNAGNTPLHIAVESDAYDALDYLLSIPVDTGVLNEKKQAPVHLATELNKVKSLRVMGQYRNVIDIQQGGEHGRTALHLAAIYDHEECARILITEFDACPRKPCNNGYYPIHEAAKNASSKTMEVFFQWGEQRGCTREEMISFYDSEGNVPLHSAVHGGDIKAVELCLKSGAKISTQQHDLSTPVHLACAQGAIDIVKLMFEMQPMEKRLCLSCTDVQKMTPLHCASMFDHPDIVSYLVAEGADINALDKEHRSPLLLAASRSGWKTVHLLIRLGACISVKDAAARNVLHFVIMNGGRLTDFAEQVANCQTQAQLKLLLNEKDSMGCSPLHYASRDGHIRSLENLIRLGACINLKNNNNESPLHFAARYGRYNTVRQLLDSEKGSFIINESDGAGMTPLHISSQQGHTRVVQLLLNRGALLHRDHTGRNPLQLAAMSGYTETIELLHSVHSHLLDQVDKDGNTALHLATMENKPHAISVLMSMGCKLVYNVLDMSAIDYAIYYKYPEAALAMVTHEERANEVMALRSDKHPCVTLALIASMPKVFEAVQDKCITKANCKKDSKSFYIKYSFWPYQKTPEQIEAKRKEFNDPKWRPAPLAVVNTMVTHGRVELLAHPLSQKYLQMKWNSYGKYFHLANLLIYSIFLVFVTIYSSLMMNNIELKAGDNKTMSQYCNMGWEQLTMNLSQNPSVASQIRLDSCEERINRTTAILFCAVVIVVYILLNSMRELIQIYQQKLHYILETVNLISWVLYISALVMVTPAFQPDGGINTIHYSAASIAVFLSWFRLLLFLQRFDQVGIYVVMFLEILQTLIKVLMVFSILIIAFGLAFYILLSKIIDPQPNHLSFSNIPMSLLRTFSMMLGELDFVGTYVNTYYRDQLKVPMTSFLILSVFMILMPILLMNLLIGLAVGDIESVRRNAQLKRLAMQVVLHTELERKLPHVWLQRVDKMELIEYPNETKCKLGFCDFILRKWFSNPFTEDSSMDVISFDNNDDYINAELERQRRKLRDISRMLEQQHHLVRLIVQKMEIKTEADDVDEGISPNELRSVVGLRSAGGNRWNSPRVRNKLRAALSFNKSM", "type": "cell-based", "settings": "read-out: TRPA1-DL / DmTRPA1-D", "source_text": "two-electrode voltage clamp, Xenopus oocytes, heat-normalized AITC-evoked current on DmTRPA1-D"}, "[6]": {"tested_on": "T6, SfTRPA1-DL", "T6 construct": "gene TrpA1; full CDS of splice isoform DL (artificial synthesis, Genscript) in pOX(+), cRNA-injected Xenopus laevis oocytes", "type": "cell-based, Scaptomyza flava", "settings": "agonist (electrophile); ND96 pH 7.4, -60 mV; after prior heat stimulus (>40 °C); read-out: TRPA1-DL / SfTRPA1-DL", "source_text": "two-electrode voltage clamp, Xenopus oocytes, heat-normalized AITC-evoked current on SfTRPA1-DL"}}}
{"compound": "C=CCN=C=S", "note": "[allyl isothiocyanate]", "values": [{"measurement": "EC50", "setting": "[1]", "result": "29 ± 15", "unit": "µM"}, {"measurement": "EC50", "setting": "[2]", "result": "8.6 ± 4.3", "unit": "µM"}, {"measurement": "EC50", "setting": "[3]", "result": "103 ± 15", "unit": "µM"}, {"measurement": "EC50", "setting": "[4]", "result": "65 ± 55", "unit": "µM"}, {"measurement": "EC50", "setting": "[5]", "result": "341 ± 92", "unit": "µM"}, {"measurement": "EC50", "setting": "[6]", "result": "316 ± 31", "unit": "µM"}]}
